Data taken from patent US11767330B2, “Citrate salt, pharmaceutical compositions, and methods of making and using the same” (Foghorn Therapeutics Inc., priority 2021, dated 2023).

Assay: Forced degradation study of compound D1 (HPLC)
Type: physicochemical
Protocol: Sample stock solution was prepared by weighing 60.74 mg of compound D1 to a 100 mL volumetric flask, dissolving by ultrasonic in 50 mL of diluent 2, diluting to volume with diluent 2, and mixing well.
Unstressed sample solution was prepared by weighing 21.32 mg of compound D1 into a 100 mL volumetric flask, dissolving by ultrasonic in 50 mL of diluent 3, diluting to volume with diluent 3, and mixing well.
Sample solution for pH=4.0 solution stability was prepared as follows. 20.96 mg of compound D1 were weighed into a 100 mL volumetric flask, dissolved by ultrasonic in 50 mL of pH=4.0 50 mM sodium citrate buffer, diluted to volume with pH=4.0 50 mM sodium citrate buffer, and mixed well.
Sample solution for pH=5.0 solution stability was prepared as follows. 20.75 mg of compound D were weighed into a 100 mL volumetric flask, dissolved by ultrasonic in 50 mL of pH=5.0 50 mM sodium citrate buffer, diluted to volume with pH=5.0 50 mM sodium citrate buffer, and mixed well.
Sample solution for pH=7.0 solution stability was prepared as follows. 19.91 mg of compound D1 and 684.71 mg KH2PO4 were weighed into a 100 mL volumetric flask, dissolved by ultrasonic in 50 mL of diluent 1, transferred 29.1 mL of 0.1N NaOH into the same volumetric flask, diluted to volume with diluent 1, and mixed well.
Acid degradation (1N HCl at RT). 3 mL of the sample stock solution (see above) were transferred into an 8 mL vial, 3 mL of 2N HCl solution were added, and the resulting mixture was mixed well. Samples were prepared in quadruplicate and kept at RT. At the sampling point, 2 mL of the sample were transferred into an 8 mL vial and neutralized with 1 mL of 2N NaOH.
Samples were prepared in triplicate and kept at RT. […]
Oxidation degradation (3% H2O2 at RT). 3 mL of the sample stock solution (see above) were transferred into an 8 mL vial, 3 mL of 6% H2O2 solution were added, and the resulting mixture was mixed well. Samples were prepared in quadruplicate and kept at RT. At the sampling time point, 2 mL of the solution were transferred into an 8 mL vial, neutralized with 1 mL of diluent 3, and mixed well.
Photolysis degradation (solid). About 60 mg of compound D1 were placed onto a watch glass. Samples were prepared in triplicate and placed in a photo chamber (see Table 8). At the sampling time point, the sample was placed in a vial for analysis. About 20.0±2.0 mg of the sample into a 100 mL volumetric flask, dissolved by ultrasonic in 50 mL of diluent 3, diluted to volume with diluent 3, and mixed well.
Dark control sample: one sample was prepared as described above for this test, but the watch glass was covered with aluminum foil, and processed as described above.
Solid: about 60 mg of compound D1 were weighted into an 8 mL vial. Samples were prepared in triplicate and placed in an oven at 80° C. At the sampling time point, about 20.0±2.0 mg of the sample were weighed into a 100 mL volumetric flask, dissolved by ultrasonic in 50 mL of diluent 3, diluted to volume with diluent 3, and mixed well.
Solution: 3 mL of the sample stock solution (see above) were transferred into an 8 mL vial. Samples were prepared in triplicate and placed them in an oven at 80° C. At the sampling time point, 1 mL of the solution was transferred into an 8 mL vial, neutralized with 2 mL of diluent 3, and mixed well.
Humidity degradation (92% RH for solid). About 60 mg of compound D1 were transferred into a 20 mL vial (without cap). Samples were prepared in triplicate and placed in a desiccator at 92% RH. At the sampling time point, about 20.0±2.0 mg of the sample were transferred into a 100 mL volumetric flask, dissolved by ultrasonic in 50 mL of diluent 3, diluted to volume with diluent 3, and mixed well.
Solution Stability. Samples were prepared tested under the solution stability conditions noted in Table 8. The sampling time points were as noted in Table 8.

[1] = Acid Hydrolysis, 1N HCl RT, 0 h
[2] = Acid Hydrolysis, 1N HCl RT, 1 d
[3] = Acid Hydrolysis, 1N HCl RT, 2 d
[4] = Acid Hydrolysis, 1N HCl RT, 3 d
[5] = Base Hydrolysis, 1N NaOH RT, 0 h
[6] = Base Hydrolysis, 1N NaOH RT, 1 h
[7] = Photolysis, 1.10 W/m^2/25° C. for solid, 13 h
[8] = Photolysis, 1.10 W/m^2/25° C. for solid, 26 h
[9] = Photolysis, 1.10 W/m^2/25° C. for solid, 39 h
[10] = Solution Stability, pH = 4.0, 50 mM Sodium citrate buffer at RT, 0 h
[11] = Solution Stability, pH = 4.0, 50 mM Sodium citrate buffer at RT, 1 d
[12] = Solution Stability, pH = 4.0, 50 mM Sodium citrate buffer at RT, 3 d
[13] = Solution Stability, pH = 4.0, 50 mM Sodium citrate buffer at RT, 7 d
[14] = Solution Stability, pH = 5.0 50 mM Sodium citrate buffer at RT, 0 h
[15] = Solution Stability, pH = 5.0 50 mM Sodium citrate buffer at RT, 1 d
[16] = Solution Stability, pH = 5.0 50 mM Sodium citrate buffer at RT, 3 d
[17] = Solution Stability, pH = 5.0 50 mM Sodium citrate buffer at RT, 7 d
[18] = Solution Stability, pH = 7.0 Phosphate buffer at RT, 0 h
[19] = Solution Stability, pH = 7.0 Phosphate buffer at RT, 1 d
[20] = Solution Stability, pH = 7.0 Phosphate buffer at RT, 2 d

For COc1cc(-c2cn(C)c(=O)c3cnc(N4CCC4)cc23)cc(OC)c1CN1CCC(CN2CCC3(CC2)CN(c2ccc4c(c2)C(=O)N(C2CCC(=O)NC2=O)C4)C3)CC1 (racemic) [Compound D1, 3-[6-(7-[[1-([4-[6-(azetidin-1-yl)-2-methyl-1-oxo-2,7-naphthyridin-4-yl]-2,6-dimethoxyphenyl]methyl)piperidin-4-yl]methyl]-2,7-diazaspiro[3.5]nonan-2-yl)-1-oxo-3H-isoindol-2-yl]piperidine-2,6-dione], the “% Degradation” value [1] was 0.438%, the “% Mass Balance” value [1] was 108.2% and the Area % [1] was 93.734%. The “% Degradation” value [2] was 4.781%, the “% Mass Balance” value [2] was 106.5% and the Area % [2] was 89.391%. For the same compound, the “% Degradation” value [3] was 8.992%, the “% Mass Balance” value [3] was 107.6% and the Area % [3] was 85.180%. The “% Degradation” value [4] was 12.125%, the “% Mass Balance” value [4] was 106.9% and the Area % [4] was 82.047%. For the same compound, the “% Degradation” value [5] was 25.210%, the “% Mass Balance” value [5] was 104.0% and the Area % [5] was 68.962%. For the same compound, the “% Degradation” value [6] was 76.841%, the “% Mass Balance” value [6] was 98.0% and the Area % [6] was 17.331%. The “% Degradation” value (Humidity, 92% RH, 1 d) was 1.245%, the “% Mass Balance” value (Humidity, 92% RH, 1 d) was 98.8% and the Area % (Humidity, 92% RH, 1 d) was 92.927%. For the same compound, the “% Degradation” value (Humidity, 92% RH, 3 d) was 2.091%, the “% Mass Balance” value (Humidity, 92% RH, 3 d) was 99.5% and the Area % (Humidity, 92% RH, 3 d) was 92.081%. The “% Degradation” value (Humidity, 92% RH, 7 d) was 3.282%, the “% Mass Balance” value (Humidity, 92% RH, 7 d) was 99.8% and the Area % (Humidity, 92% RH, 7 d) was 90.890%. The “% Degradation” value (Oxidation, 3% H2O2 RT, 0 h) was 16.184%, the “% Mass Balance” value (Oxidation, 3% H2O2 RT, 0 h) was 106.8% and the Area % (Oxidation, 3% H2O2 RT, 0 h) was 77.988%. For the same compound, the “% Degradation” value (Oxidation, 3% H2O2 RT, 8 h) was 60.417%, the “% Mass Balance” value (Oxidation, 3% H2O2 RT, 8 h) was 105.2% and the Area % (Oxidation, 3% H2O2 RT, 8 h) was 33.755%. For the same compound, the “% Degradation” value [7] was 3.088%, the “% Mass Balance” value [7] was 101.0% and the Area % [7] was 91.084%. The “% Degradation” value [8] was 3.256%, the “% Mass Balance” value [8] was 92.1% and the Area % [8] was 90.916%. For the same compound, the “% Degradation” value [9] was 3.436%, the “% Mass Balance” value [9] was 105.7% and the Area % [9] was 90.736%. The “% Degradation” value [10] was 0.656%, the “% Mass Balance” value [10] was 90.1% and the Area % [10] was 93.516%. For the same compound, the “% Degradation” value [11] was 0.841%, the “% Mass Balance” value [11] was 93.7% and the Area % [11] was 93.331%. The “% Degradation” value [12] was 1.299%, the “% Mass Balance” value [12] was 93.9% and the Area % [12] was 92.873%. The “% Degradation” value [13] was 2.042%, the “% Mass Balance” value [13] was 93.7% and the Area % [13] was 92.130%. For the same compound, the “% Degradation” value [14] was 1.674%, the “% Mass Balance” value [14] was 95.3% and the Area % [14] was 92.498%. For the same compound, the “% Degradation” value [15] was 1.922%, the “% Mass Balance” value [15] was 103.1% and the Area % [15] was 92.250%. For the same compound, the “% Degradation” value [16] was 2.133%, the “% Mass Balance” value [16] was 100.0% and the Area % [16] was 92.039%. The “% Degradation” value [17] was 4.658%, the “% Mass Balance” value [17] was 100.8% and the Area % [17] was 89.514%. The “% Degradation” value [18] was 1.534%, the “% Mass Balance” value [18] was 97.1% and the Area % [18] was 92.638%. For the same compound, the “% Degradation” value [19] was 8.920%, the “% Mass Balance” value [19] was 102.6% and the Area % [19] was 85.252%. For the same compound, the “% Degradation” value [20] was 15.170%, the “% Mass Balance” value [20] was 100.6% and the Area % [20] was 79.002%. For the same compound, the “% Degradation” value (Thermal, 80° C., Solid, 1 d) was 0.724%, the “% Mass Balance” value (Thermal, 80° C., Solid, 1 d) was 105.7% and the Area % (Thermal, 80° C., Solid, 1 d) was 93.448%. For the same compound, the “% Degradation” value (Thermal, 80° C., Solid, 3 d) was 0.978%, the “% Mass Balance” value (Thermal, 80° C., Solid, 3 d) was 97.6% and the Area % (Thermal, 80° C., Solid, 3 d) was 93.194%. For the same compound, the “% Degradation” value (Thermal, 80° C., Solid, 7 d) was 11.980%, the “% Mass Balance” value (Thermal, 80° C., Solid, 7 d) was 92.7% and the Area % (Thermal, 80° C., Solid, 7 d) was 82.192%. For the same compound, the “% Degradation” value (Thermal, 80° C., Solution, 1 d) was 0.119%, the “% Mass Balance” value (Thermal, 80° C., Solution, 1 d) was 100.5% and the Area % (Thermal, 80° C., Solution, 1 d) was 94.053%. The “% Degradation” value (Thermal, 80° C., Solution, 7 d) was 62.235%, the “% Mass Balance” value (Thermal, 80° C., Solution, 7 d) was 104.2% and the Area % (Thermal, 80° C., Solution, 7 d) was 31.937%. It also gave an Area % (Unstressed) of 94.172%.
